Measured values: patent US10647713B2 (Nimbus Lakshmi, Inc., priority 2016, dated 2020)

What follows are compounds tested against human TYK2 (JH2domain-pseudokinase) (Homo sapiens (Human), UniProt P29597) (assay: TYK2 JH2 Domain Binding Assay (KINOMEscan, DiscoveRx)). Conditions: 11-point dilution, duplicate.
Summary of the method: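 TYK2 JH2 (G556–D888)–NFkB DBD fusion, DNA-tagged, from HEK293 extracts (<0.1 nM) competed against immobilised biotinylated ligand for 1 h at room temperature, 0.9% DMSO. Bead-retained kinase quantified by qPCR; Kd from 11-point 3-fold series (top 30,000 nM, duplicate), Hill fit with slope −1.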

human TYK2 (JH2domain-pseudokinase), sequence (P29597 556-888): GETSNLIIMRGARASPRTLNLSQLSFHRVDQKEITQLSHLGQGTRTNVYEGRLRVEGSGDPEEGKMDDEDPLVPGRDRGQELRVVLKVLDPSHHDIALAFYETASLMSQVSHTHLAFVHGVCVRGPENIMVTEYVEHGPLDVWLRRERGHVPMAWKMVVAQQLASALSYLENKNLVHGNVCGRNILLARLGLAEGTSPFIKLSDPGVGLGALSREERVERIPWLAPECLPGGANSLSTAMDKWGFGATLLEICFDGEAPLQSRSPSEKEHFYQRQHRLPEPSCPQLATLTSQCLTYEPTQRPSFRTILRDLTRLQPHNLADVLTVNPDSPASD

Row | Kd | Structure (SMILES)
1 | 0.1 to 0.5 nM | Cc1nc2c(Nc3ccc(-c4ccn(C)n4)cc3S(C)(=O)=O)cc(NC(=O)[C@@H]3CC3(F)F)nc2[nH]1 [I-239, (S)-2,2-difluoro-N-(2-methyl-7-((4-(1-methyl-1H-pyrazol-3-yl)-2-(methylsulfonyl)phenyl)amino)-3H-imidazo[4,5-b]pyridin-5-yl)cyclopropane-1-carboxamide]
2 | 1 to 10 nM | CS(=O)(=O)c1cc(C2CCOCC2)ccc1Nc1cc(NC(=O)[C@@H]2CC2(F)F)nc2[nH]c(C(F)F)nc12 [I-293, (S)—N-(2-(difluoromethyl)-7-((2-(methylsulfonyl)-4-(tetrahydro-2H-pyran-4-yl)phenyl)amino)-3H-imidazo[4,5-b]pyridin-5-yl)-2,2-difluorocyclopropane-1-carboxamide]
3 | 0.1 to 0.5 nM | CP(C)(=O)c1cc(C2CC2)ccc1Nc1cc(NC(=O)C2CC2)nc2[nH]c(C(F)F)nc12 [I-285, N-(7-((4-cyclopropyl-2-(dimethylphosphoryl)phenyl)amino)-2-(difluoromethyl)-3H-imidazo[4,5-b]pyridin-5-yl)cyclopropanecarboxamide]
4 | 0.5 to 1 nM | Cc1nc2c(Nc3ccc(C4CC4)cc3S(C)(=O)=O)cc(Nc3cccc(C(F)(F)F)n3)nc2[nH]1 [I-273]
5 | 0.1 to 0.5 nM | Cc1cc(Nc2cc(Nc3ccccc3N(C)S(C)(=O)=O)c3nc(C(F)F)[nH]c3n2)nc(C)n1 [I-45, N-(2-((2-(difluoromethyl)-5-((2,6-dimethylpyrimidin-4-yl)amino)-3H-imidazo[4,5-b]pyridin-7-yl)amino)phenyl)-N-methylmethanesulfonamide]
6 | 1 to 10 nM | Cc1cc(Nc2cc(Nc3ccc(C4=NC(C)(C)CS4)cc3S(C)(=O)=O)c3nc(C(F)F)[nH]c3n2)nc(C)n1 [I-563, 2-(difluoromethyl)-N7-(4-(4,4-dimethyl-4,5-dihydrothiazol-2-yl)-2-(methylsulfonyl)phenyl)-N5-(2,6-dimethylpyrimidin-4-yl)-3H-imidazo[4,5-b]pyridine-5,7-diamine]
7 | < 0.1 nM | Cc1nc2c(Nc3ccc(F)cc3S(C)(=O)=O)cc(Nc3ccc(OC4CCOCC4)c(C#N)n3)nc2[nH]1 [I-626, 6-((7-((4-fluoro-2-(methylsulfonyl)phenyl)amino)-2-methyl-3H-imidazo[4,5-b]pyridin-5-yl)amino)-3-((tetrahydro-2H-pyran-4-yl)oxy)picolinonitrile]
8 | < 0.1 nM | CN=S(C)(=O)c1cc(-c2nn(C)cc2C)ccc1Nc1cc(NC(=O)C2CC2)nc2[nH]c(C(F)F)nc12 (centres unmarked) [I-641]
9 | 1 to 10 nM | Cc1nc2c(Nc3ccc(-c4nn(C)cc4C)cc3S(C)(=O)=O)cc(NC(=O)[C@@H]3CC3(C)C)nc2[nH]1 [I-478, (R)—N-(7-((4-(1,4-dimethyl-1H-pyrazol-3-yl)-2-(methylsulfonyl)phenyl)amino)-2-methyl-3H-imidazo[4,5-b]pyridin-5-yl)-2,2-dimethylcyclopropane-1-carboxamide]
10 | 0.1 to 0.5 nM | Cc1nc2c(Nc3ccccc3S(C)(=O)=O)cc(Nc3ccc(C(C)C)c(C#N)n3)nc2[nH]1 [I-490, 3-isopropyl-6-((2-methyl-7-((2-(methylsulfonyl)phenyl)amino)-3H-imidazo[4,5-b]pyridin-5-yl)amino)picolinonitrile]
11 | 0.1 to 0.5 nM | Cc1cc(Nc2cc(Nc3ccc(-c4cc(C)n(C)n4)cc3S(C)(=O)=O)c3nc(C(F)F)[nH]c3n2)nc(C)n1 [I-519, 2-(difluoromethyl)-N7-(4-(1,5-dimethyl-1H-pyrazol-3-yl)-2-(methylsulfonyl)phenyl)-N5-(2,6-dimethylpyrimidin-4-yl)-3H-imidazo[4,5-b]pyridine-5,7-diamine]
12 | 0.1 to 0.5 nM | Cc1ncc(Nc2cc(Nc3ccc(Cl)cc3N(C)S(C)(=O)=O)c3nc(C(F)F)[nH]c3n2)nc1C [I-93, N-(5-chloro-2-((2-(difluoromethyl)-5-((5,6-dimethylpyrazin-2-yl)amino)-3H-imidazo[4,5-b]pyridin-7-yl)amino)phenyl)-N-methylmethanesulfonamide]
13 | 0.1 to 0.5 nM | CS(=O)(=O)c1cc([C@@H]2CCCCO2)ccc1Nc1cc(Nc2cc3n(n2)CCOC3)nc2[nH]c(C(F)F)nc12 [I-516, (S)-2-(difluoromethyl)-N5-(6,7-dihydro-4H-pyrazolo[5,1-c][1,4]oxazin-2-yl)-N7-(2-(methylsulfonyl)-4-(tetrahydro-2H-pyran-2-yl)phenyl)-3H-imidazo[4,5-b]pyridine-5,7-diamine]
14 | 0.5 to 1 nM | Cc1ncc(Nc2cc(Nc3ccc([C@@H]4CCCCO4)cc3S(C)(=O)=O)c3nc(C(F)F)[nH]c3n2)nc1C [I-487, (S)-2-(difluoromethyl)-N5-(5,6-dimethylpyrazin-2-yl)-N7-(2-(methylsulfonyl)-4-(tetrahydro-2H-pyran-2-yl)phenyl)-3H-imidazo[4,5-b]pyridine-5,7-diamine]
15 | 1 to 10 nM | COc1cc(-c2cc(C)n(C)n2)ccc1Nc1cc(NC(=O)C2CC2)nc2[nH]c(C(F)F)nc12 [I-589, N-(2-(difluoromethyl)-7-((4-(1,5-dimethyl-1H-pyrazol-3-yl)-2-methoxyphenyl)amino)-3H-imidazo[4,5-b]pyridin-5-yl)cyclopropanecarboxamide]
16 | 1 to 10 nM | CC1(C)COC(c2ccc(Nc3cc(NC(=O)[C@H]4C[C@H]4F)nc4[nH]c(C(F)F)nc34)c(S(C)(=O)=O)c2)=N1 [I-471, (1R,2R)—N-(2-(difluoromethyl)-7-((4-(4,4-dimethyl-4,5-dihydrooxazol-2-yl)-2-(methylsulfonyl)phenyl)amino)-3H-imidazo[4,5-b]pyridin-5-yl)-2-fluorocyclopropane-1-carboxamide]
17 | 0.5 to 1 nM | COc1c(Nc2cc(Nc3cccc(C#N)n3)nc3[nH]c(C(F)F)nc23)cccc1-c1nc(C)nn1C [I-541, 6-((2-(difluoromethyl)-7-((3-(1,3-dimethyl-1H-1,2,4-triazol-5-yl)-2-methoxyphenyl)amino)-3H-imidazo[4,5-b]pyridin-5-yl)amino)picolinonitrile]
18 | 0.5 to 1 nM | COc1c(Nc2cc(Nc3cnc(C)c(C)n3)nc3[nH]c(C(F)F)nc23)cccc1-c1nnn(C)n1 [I-21, 2-(difluoromethyl)-N5-(5,6-dimethylpyrazin-2-yl)-N7-(2-methoxy-3-(2-methyl-2H-tetrazol-5-yl)phenyl)-3H-imidazo[4,5-b]pyridine-5,7-diamine]
19 | > 10 nM | COc1c(Nc2cc(Nc3cc(F)c(N4CC(OC)C4)cn3)nc3[nH]c(C(F)F)nc23)cccc1-c1nc(C)nn1C [I-167, 2-(difluoromethyl)-N7-(3-(1,3-dimethyl-1H-1,2,4-triazol-5-yl)-2-methoxyphenyl)-N5-(4-fluoro-5-(3-methoxyazetidin-1-yl)pyridin-2-yl)-3H-imidazo[4,5-b]pyridine-5,7-diamine]
20 | 0.5 to 1 nM | COc1c(Nc2cc(NC(=O)[C@@H]3C[C@@H]3F)nc3[nH]c(C(F)F)nc23)cccc1-c1ncn(C)n1 [I-296, (1S,2S)—N-(2-(difluoromethyl)-7-((2-methoxy-3-(1-methyl-1H-1,2,4-triazol-3-yl)phenyl)amino)-3H-imidazo[4,5-b]pyridin-5-yl)-2-fluorocyclopropane-1-carboxamide]

Row | Structure (SMILES) | Kd
21 | COc1c(Nc2cc(Nc3ccc(C(=O)N4CCCC4)c(C(F)(F)F)n3)nc3[nH]c(C)nc23)cccc1-c1nnn(C)n1 [I-108, (6-((7-((2-methoxy-3-(2-methyl-2H-tetrazol-5-yl)phenyl)amino)-2-methyl-3H-imidazo[4,5-b]pyridin-5-yl)amino)-2-(trifluoromethyl)pyridin-3-yl)(pyrrolidin-1-yl)methanone] | 0.1 to 0.5 nM
22 | COc1c(Nc2cc(Nc3cccc(C#N)n3)nc3[nH]c(C)nc23)cccc1-c1ncnn1C [I-539, 6-((7-((2-methoxy-3-(1-methyl-1H-1,2,4-triazol-5-yl)phenyl)amino)-2-methyl-3H-imidazo[4,5-b]pyridin-5-yl)amino)picolinonitrile] | 0.5 to 1 nM
23 | Cc1ccc(Nc2cc(Nc3ccc(Cl)cc3S(C)(=O)=O)c3nc(C)[nH]c3n2)nn1 [I-189, N7-(4-chloro-2-(methylsulfonyl)phenyl)-2-methyl-N5-(6-methylpyridazin-3-yl)-3H-imidazo[4,5-b]pyridine-5,7-diamine] | 0.1 to 0.5 nM
24 | COc1c(Nc2cc(NC(=O)C3CC3)nc3[nH]c(C)nc23)ccc(-c2cc(C)n(C)n2)c1F [I-577, N-(7-((4-(1,5-dimethyl-1H-pyrazol-3-yl)-3-fluoro-2-methoxyphenyl)amino)-2-methyl-3H-imidazo[4,5-b]pyridin-5-yl)cyclopropanecarboxamide] | > 10 nM
25 | Cc1nc2c(Nc3ccc(-c4nc(C)sc4C)cc3S(C)(=O)=O)cc(NC(=O)C3CC3)nc2[nH]1 [I-488, N-(7-((4-(2,5-dimethylthiazol-4-yl)-2-(methylsulfonyl)phenyl)amino)-2-methyl-3H-imidazo[4,5-b]pyridin-5-yl)cyclopropanecarboxamide] | < 0.1 nM
26 | Cc1nc2c(Nc3ccc(-c4nc(C)c(C)s4)cc3S(C)(=O)=O)cc(Nc3cccc(C#N)n3)nc2[nH]1 [I-506, 6-((7-((4-(4,5-dimethylthiazol-2-yl)-2-(methylsulfonyl)phenyl)amino)-2-methyl-3H-imidazo[4,5-b]pyridin-5-yl)amino)picolinonitrile] | 0.5 to 1 nM
27 | Cc1nc2c(Nc3ccc([C@@H]4CCC(C)(C)O4)cc3S(C)(=O)=O)cc(NC(=O)C3CC3)nc2[nH]1 [I-592, (S)—N-(7-((4-(5,5-dimethyltetrahydrofuran-2-yl)-2-(methylsulfonyl)phenyl)amino)-2-methyl-3H-imidazo[4,5-b]pyridin-5-yl)cyclopropanecarboxamide] | 0.5 to 1 nM
28 | Cc1cc(Nc2cc(Nc3ccc(-c4nc(C)sc4C)cc3S(C)(=O)=O)c3nc(C(F)F)[nH]c3n2)nc(C)n1 [I-578, 2-(difluoromethyl)-N5-(2,6-dimethylpyrimidin-4-yl)-N7-(4-(2,5-dimethylthiazol-4-yl)-2-(methylsulfonyl)phenyl)-3H-imidazo[4,5-b]pyridine-5,7-diamine] | 0.1 to 0.5 nM
29 | Cc1nc2c(Nc3ccc(C4=NCC(C)(C)O4)cc3S(C)(=O)=O)cc(NC(=O)C3CC3)nc2[nH]1 [I-284, N-(7-((4-(5,5-dimethyl-4,5-dihydrooxazol-2-yl)-2-(methylsulfonyl)phenyl)amino)-2-methyl-3H-imidazo[4,5-b]pyridin-5-yl)cyclopropanecarboxamide] | 0.5 to 1 nM
